Data taken from ChEMBL document CHEMBL1201862, “PubChem BioAssay data set” (2004).
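Dose response: 5 concentrations. Exposure: 48 h. Format: 96-well plates. Endpoint: linear interpolation; highest concentration if not reached. At the GI50, growth is halved.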 The source made the active and inactive calls. No stated cut-off is given here; in the data, active = GI50 up to about 1.1 µM and inactive = higher.

Tests used:
Experiment in all cases: NCI tumour cell line growth inhibition, 48 h
[1] = tested on: 786-0
[2] = tested on: A498
[3] = tested on: A549
[4] = tested on: ACHN
[5] = tested on: CAKI-1
[6] = tested on: CCRF-CEM
[7] = tested on: COLO 205
[8] = tested on: DLD-1
[9] = tested on: DMS-114
[10] = tested on: EKVX
[11] = tested on: HCC 2998
[12] = tested on: HCT-116
[13] = tested on: HCT-15
[14] = tested on: HL-60
[15] = tested on: HOP-18
[16] = tested on: HOP-62
[17] = tested on: HOP-92
[18] = tested on: HT-29
[19] = tested on: IGROV-1
[20] = tested on: K562
[21] = tested on: KM-20L2
[22] = tested on: KM12
[23] = tested on: LOX IMVI
[24] = tested on: LXFL 529
[25] = tested on: M14
[26] = tested on: M19-MEL
[27] = tested on: MOLT-4
[28] = tested on: Malme-3M
[29] = tested on: NCI-H226
[30] = tested on: NCI-H23
[31] = tested on: NCI-H460
[32] = tested on: NCI-H522
[33] = tested on: OVCAR-3
[34] = tested on: OVCAR-4
[35] = tested on: OVCAR-5
[36] = tested on: OVCAR-8
[37] = tested on: RPMI-8226
[38] = tested on: RXF 393
[39] = tested on: RXF 631
[40] = tested on: SF-268
[41] = tested on: SF-295
[42] = tested on: SF-539
[43] = tested on: SK-MEL-28
[44] = tested on: SK-MEL-5
[45] = tested on: SK-OV-3
[46] = tested on: SN12C
[47] = tested on: SNB-19
[48] = tested on: SNB-75
[49] = tested on: SNB-78
[50] = tested on: SR
[51] = tested on: SW-620
[52] = tested on: TK-10
[53] = tested on: U-251
[54] = tested on: UACC-257
[55] = tested on: UACC-62
[56] = tested on: UO-31
[57] = tested on: XF498
[58] = tested on: DMS-273

Measured: GI50

O=C(Nc1ccc(Cl)cc1Cl)C(=O)C(C(=O)c1ccncc1)C1OC(=O)c2ccccc21 (centres undefined)
> 100 µM: [13]
inactive: [1] > 100 µM | [2] > 100 µM | [3] > 100 µM | [4] > 100 µM | [5] > 100 µM | [6] > 100 µM | [7] > 100 µM | [8] > 100 µM | [9] > 100 µM | [10] > 100 µM | [11] > 100 µM | [12] > 100 µM | [14] > 100 µM | [15] > 100 µM | [16] > 100 µM | [17] > 100 µM | [18] > 100 µM | [19] > 100 µM | [20] > 100 µM | [21] > 100 µM | [22] > 100 µM | [23] > 100 µM | [24] > 100 µM | [25] > 100 µM | [26] > 100 µM | [27] > 100 µM | [28] > 100 µM | [29] > 100 µM | [30] > 100 µM | [31] > 100 µM | [32] > 100 µM | [33] > 100 µM | [34] > 100 µM | [35] > 100 µM | [36] > 100 µM | [37] > 100 µM | [38] > 100 µM | [39] > 100 µM | [40] > 100 µM | [41] > 100 µM | [42] > 100 µM | [43] > 100 µM | [44] > 100 µM | [45] > 100 µM | [46] > 100 µM | [47] > 100 µM | [48] > 100 µM | [49] > 100 µM | [50] > 100 µM | [51] > 100 µM | [52] > 100 µM | [53] > 100 µM | [54] > 100 µM | [55] > 100 µM | [56] > 100 µM | [57] > 100 µM

N=C(N)NS(=O)(=O)c1ccc(Nc2c3ccccc3nc3c(C(=O)Nc4ccc(S(N)(=O)=O)cc4)ccc(Cl)c23)cc1
> 100 µM: [13]
inactive: [1] > 100 µM | [2] > 100 µM | [3] > 100 µM | [4] > 100 µM | [5] > 100 µM | [7] > 100 µM | [8] > 100 µM | [9] > 100 µM | [58] > 100 µM | [10] > 100 µM | [11] > 100 µM | [12] > 100 µM | [14] 47.8 µM | [15] > 100 µM | [16] > 100 µM | [17] > 100 µM | [18] > 100 µM | [19] > 100 µM | [20] > 100 µM | [21] > 100 µM | [22] > 100 µM | [23] > 100 µM | [24] > 100 µM | [25] > 100 µM | [26] > 100 µM | [27] > 100 µM | [28] > 100 µM | [29] > 100 µM | [30] > 100 µM | [31] > 100 µM | [32] > 100 µM | [33] > 100 µM | [34] > 100 µM | [35] > 100 µM | [36] 58.2 µM | [37] > 100 µM | [38] > 100 µM | [39] > 100 µM | [40] > 100 µM | [41] > 100 µM | [42] > 100 µM | [43] > 100 µM | [44] > 100 µM | [45] > 100 µM | [46] > 100 µM | [47] > 100 µM | [48] > 100 µM | [49] 65.5 µM | [50] > 100 µM | [51] > 100 µM | [52] > 100 µM | [53] > 100 µM | [54] > 100 µM | [55] > 100 µM | [56] > 100 µM | [57] > 100 µM
